Reference: publication PMC10035387 (Cancer Research Communications, 2022)
Read-outs that look alike come from different tables or passages of the source.

Tests used:
[1] = system: cytochrome P450 (CYP) 2C8 and CYP3A4; parameters: method as in earlier work; conditions: cited from earlier work
Panc265 model = conditions: cited from earlier work
[2] = system: metastatic pancreatic cancer; conditions: cited from earlier work; for Median OS: P < 0.001; for Efficacy in randomized clinical trials: patients with PDAC
[3] = Phase Ib study: adverse events, dose-limiting toxicities, MTD
Protocol: The criteria for dose escalation were based on a modified toxicity probability method ([20]), using a statistical probability algorithm calculated with all patients treated at the same dose level. […] The study was conducted in accordance with legal and regulatory requirements and the Declaration of Helsinki. Prior to participant enrollment, the study was approved by the Institutional Review Board/Ethics Committee at each site at which it was conducted. Patients provided written informed consent before any study procedures were performed.

phospho-Rb (pRb) = assay: pRb IHC in serial paired skin biopsy specimens; assay type: in vivo, human; conditions: skin biopsies
Ki67 = Ki67 IHC in serial paired skin biopsy specimens; assay type: in vivo, human; conditions: skin biopsies
[4] = human, in vivo
Description: (§1) Other outcomes included safety, pharmacokinetics, pharmacodynamics, tissue/blood biomarkers, objective tumor response, progression-free survival (PFS), and OS assessments.

[5] = cited from earlier work
[6] = system: PDAC cell lines that retain RB1 expression; parameters: method as in PMID 29080858; conditions: cited from earlier work
[7] = Phase Ib study: plasma pharmacokinetics; conditions: steady state, overall population
Description: as §1

[8] = after 2 weeks of palbociclib treatment, first-line MTD group
[9] = after a further 2 weeks of palbociclib treatment
[10] = after the 1-week palbociclib break, before cycle 2
[11] = PALOMA-1, patients with breast cancer
[12] = PALOMA-2, patients with breast cancer

**Q.** With CC(=O)O[C@H]1C(=O)[C@@]2(C)[C@H]([C@H](OC(=O)c3ccccc3)[C@]3(O)C[C@H](OC(=O)[C@H](O)[C@@H](NC(=O)c4ccccc4)c4ccccc4)C(C)=C1C3(C)C)[C@]1(OC(C)=O)CO[C@@H]1C[C@@H]2O [Paclitaxel] as the molecule, how does the Metabolizing enzymes [1] read?
**A.** metabolized primarily by cytochrome P450 (CYP) 2C8 and CYP3A4

**Q.** With CCc1cnn2c(NCc3ccc[n+]([O-])c3)cc(N3CCCC[C@H]3CCO)nc12 [dinaciclib] as the molecule, how does the “Sensitivity of Panc265 model” value (Panc265 model) read?
**A.** sensitive

**Q.** With Nc1ccn([C@@H]2O[C@H](CO)[C@@H](O)C2(F)F)c(=O)n1 [gemcitabine] as the molecule, how does the “Median OS” value ([2]; FOLFIRINOX versus gemcitabine) read?
**A.** 6.8 months

**Q.** And the “Median OS” value ([2]; GA versus gemcitabine alone, metastatic pancreatic cancer)?
**A.** 6.7 months

**Q.** With CC(=O)c1c(C)c2cnc(Nc3ccc(N4CCNCC4)cn3)nc2n(C2CCCC2)c1=O [palbociclib] as the molecule, how does the “Permanent discontinuation of palbociclib due to bacterial gastritis” value ([3]; all patients) read?
**A.** 1.3%

**Q.** And the “Permanent discontinuation of palbociclib due to infection” value ([3]; all patients)?
**A.** 1.3%

**Q.** What about the “Permanent discontinuation of palbociclib due to sepsis” value ([3]; all patients) of the same molecule?
**A.** 1.3%

**Q.** What about the MTD of palbociclib ([3]; for 21 of every 28 days, with nab-paclitaxel) of the same molecule?
**A.** 100 mg

**Q.** And the pRb level (phospho-Rb (pRb); [8])?
**A.** decreased

**Q.** What about the pRb level (phospho-Rb (pRb); [9]) of the same molecule?
**A.** decreased again to below baseline

**Q.** What about the pRb level (phospho-Rb (pRb); [10]) of the same molecule?
**A.** rebounded to baseline or higher levels

**Q.** What about the Ki67 level (Ki67; [8]) of the same molecule?
**A.** decreased

**Q.** And the Ki67 level (Ki67; [9])?
**A.** decreased again to below baseline

**Q.** What about the Ki67 level (Ki67; [10]) of the same molecule?
**A.** rebounded to baseline or higher levels

**Q.** What about the “CL/F, geometric mean” value [4] of the same molecule?
**A.** 79.95 L/h

**Q.** And the “CL/F, median” value [4]?
**A.** 74.10 L/h

**Q.** What about the “Ctrough, geometric mean” value [4] of the same molecule?
**A.** 0.03489 µg/mL

**Q.** What about the “Ctrough, median” value [4] of the same molecule?
**A.** 0.0346 µg/mL

**Q.** What about the “tmax, median” value [4] of the same molecule?
**A.** 4.17 h

**Q.** What about the Clinical activity ([2]; CDKN2A-mutated advanced pancreatic cancer) of the same molecule?
**A.** did not have meaningful clinical activity

**Q.** What about the AUCτ [5, 11] of the same molecule?
**A.** 1,933 ng·hour/mL

**Q.** And the Cmax [5, 11]?
**A.** 0.108 µg/mL

**Q.** And the AUCτ [5, 12]?
**A.** 1,992 ng·hour/mL

**Q.** And the Cmax [5, 12]?
**A.** 0.11 µg/mL

**Q.** And the “Effect on PDAC cell lines” value [6]?
**A.** induces cell-cycle arrest and apoptosis

**Q.** And the “Dose-normalized geometric mean AUCτ” value [7]?
**A.** 1,569 ng·hour/mL

**Q.** What about the “Dose-normalized geometric mean Cmax” value [7] of the same molecule?
**A.** 0.09044 µg/mL

**Q.** Which “Median OS” value ([2]; FOLFIRINOX versus gemcitabine) does the source give for FOLFIRINOX here?
**A.** 11.1 months

B1: pegilodecakin: agent not efficacious in randomized clinical trials in PDAC (protein, UniProt P22301 19-178, looked up)
Interleukin-10: SPGQGTQSENSCTHFPGNLPNMLRDLRDAFSRVKTFFQMKDQLDNLLLKESLLEDFKGYLGCQALSEMIQFYLEEVMPQAENQDPDIKAHVNSLGENLKTLRLRLRRCHRFLPCENKSKAVEQVKNAFNKLQEKGIYKAMSEFDIFINYIEAYMTMKIRN
modifications: PEGylated
**Q.** Which “Efficacy in randomized clinical trials” value [2] does the source give for B1 here?
**A.** not efficacious

B2: PEGPH20: agent not efficacious in randomized clinical trials in PDAC (protein, UniProt P38567 36-490, looked up)
Hyaluronidase PH-20: LNFRAPPVIPNVPFLWAWNAPSEFCLGKFDEPLDMSLFSFIGSPRINATGQGVTIFYVDRLGYYPYIDSITGVTVNGGIPQKISLQDHLDKAKKDITFYMPVDNLGMAVIDWEEWRPTWARNWKPKDVYKNRSIELVQQQNVQLSLTEATEKAKQEFEKAGKDFLVETIKLGKLLRPNHLWGYYLFPDCYNHHYKKPGYNGSCFNVEIKRNDDLSWLWNESTALYPSIYLNTQQSPVAATLYVRNRVREAIRVSKIPDAKSPLPVFAYTRIVFTDQVLKFLSQDELVYTFGETVALGASGIVIWGTLSIMRSMKSCLLLDNYMETILNPYIINVTLAAKMCSQVLCQEQGVCIRKNWNSSDYLHLNPDNFAIQLEKGGKFTVRGKPTLEDLEQFSEKFYCSCYSTLSCKEKADVKDTDAVDVCIADGVCIDAFLKPPMETEEPQIFYNASPSTLS
modifications: PEGylated; pegvorhyaluronidase alfa
**Q.** Which “Efficacy in randomized clinical trials” value [2] does the source give for B2 here?
**A.** not efficacious
